Eleven compounds from patent publication US12024506B2, “Compounds” (Oxford University Innovation Limited, priority 2018, dated 2024) can be followed below.

Assay [1] deals with H358 cells (ATCC CRL-5807). Kind of assay: Cell viability assay 1 (CellTiter-Glo), H358 cells. The assay is classed as cell-based. As to conditions: Homo sapiens, NCI-H358, 48 h, first value of the cell, read-out: Cell Viability H358 (concentration that decreases cell viability by 50%). As to the method: (§1) Cells (A549 ATCC CCL-185) are cultured in Dulbecco's Modified Eagle's Medium plus 10% foetal calf serum and 2 mM L-glutamine at 37° C., 5% CO2. Cells are plated onto white clear bottom 96-well plates (5000 cells/well in 200 μl media) and left to adhere overnight at 37° C., 5% CO2. Next day, test compound (1 μl at 200× concentration in 100% DMSO) is added to give final test compound concentration 1× in 0.5% DMSO. After 48 h of incubation at 37° C., 5% CO2, 20 μl CellTiter-Glo reagent (Promega G7572) is added into each well. Plates are incubated at room temperature with shaking for 30 min and then luminescence is read using a PheraStar plate reader. The concentration of compounds that decrease cell viability by 50% is calculated from dose response curves generated using Dotmatics data analysis software.
In the H358 cell assay, cells (ATCC CRL-5807) are cultured in RPMI-1640 medium plus 10% foetal calf serum and 2 mM L-glutamine at 37° C., 5% CO2.

For assay [2], the system named is DLD1 cells (ATCC CCL-221). Kind of assay: Cell viability assay 1 (CellTiter-Glo), DLD1 cells. The assay is classed as cell-based. As to conditions: Homo sapiens, DLD-1 cells, 48 h, second value of the cell, read-out: Cell Viability DLD-1 (concentration that decreases cell viability by 50%). The protocol: as §1
In the DLD1 cell assay, cells (ATCC CCL-221) are cultured in RPMI-1640 medium plus 10% foetal calf serum and 2 mM L-glutamine at 37° C., 5% CO2.
Background: In ATP-based viability assays light output follows the ATP content of the culture.

Assay [3] has as its target T1, GST-human KRas166 (G12V) GPPNHP (Homo sapiens, UniProt P01116, G12V).
T1 construct: made in house; host or cells: E. coli C41(DE3)
Kind of assay: KRas small-molecule screening by SPR (Biacore T200). In kind it is binding. The note with it: compound 100 uM, 5% DMSO buffer; immobilised GST-KRas166 (G12V) GPPNHP. In a few lines: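 Biacore T200 screen: compounds at 100 uM final in 5% DMSO buffer (100 mM NaCl, 5 mM MgCl2) over GPPNHP-bound GST-KRas166 G12V captured by anti-GST antibody (10,000–15,000 RU) versus GST-only channel. Expected 1:1 Rmax 63 RU; DMSO solvent correction applied.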

Turning to `c1cc2c(c(-c3cnc(Nc4ccc(CNCC5COCCN5)cc4)cn3)c1)OCCO2` (stereo not drawn) [Example 155, [5-(2,3-Dihydro-benzo[1,4]dioxin-5-yl)-pyrazin-2-yl]-(4-{[(morpholin-3-ylmethyl)-amino]-methyl}-phenyl)-amine], the IC50 in assay [1] was found to be 12.7 µM; in assay [2], 0.56 µM. Moreover, the “SPR Response Units” value in assay [3] is recorded as 71 Response Units.
Taken in the same sequence, the figures for `CN(C)Cc1cccc(CN2CCN(c3cccc4c3OCCO4)CC2)c1` [Example 157, {3-[4-(2,3-Dihydro-benzo[1,4]dioxin-5-yl)-piperazin-1-ylmethyl]-benzyl}-dimethyl-amine] were more than 150 µM, more than 150 µM and 7 Response Units.
Consider `COc1nc(-c2cccc3c2OCCO3)ccc1Nc1ccc(C(=O)NCC2CCN(C)CC2)cc1` [Example 158, 4-[6-(2,3-Dihydro-benzo[1,4]dioxin-5-yl)-2-methoxy-pyridin-3-ylamino]-N-(1-methyl-piperidin-4-ylmethyl)-benzamide], for which the figures for the IC50 in assay [1] and in assay [2] were 20.6 µM and 3.5 µM, respectively. The “SPR Response Units” value in assay [3] was determined as 269 Response Units.
For `COc1nc(-c2cccc3c2OCCO3)ccc1Nc1ccc(C(=O)NCC2CCC(=O)NC2)cc1` (stereo not drawn) [Example 159] the same measures were 24.7 µM, 14.1 µM and 122 Response Units.
Taken in the same sequence, the figures for `COc1nc(-c2cccc3c2OCCO3)ccc1Nc1ccc(C(=O)NCc2cn[nH]c2)cc1` [Example 160] were 20.7 µM, 11 µM and 89 Response Units.
Taken in the same sequence, the figures for `COc1nc(-c2cccc3c2OCCO3)ccc1Nc1cccc(C(=O)NCc2cccc(C)n2)c1` [Example 162, 3-[6-(2,3-Dihydro-benzo[1,4]dioxin-5-yl)-2-methoxy-pyridin-3-ylamino]-N-(6-methyl-pyridin-2-ylmethyl)-benzamide] were 27.9 µM, 3.9 µM and 36 Response Units.
For the compound `COc1nc(-c2cccc3c2OCCO3)ccc1Nc1cccc(C(=O)NCC2CCN(C)CC2)c1` [Example 163, 3-[6-(2,3-Dihydro-benzo[1,4]dioxin-5-yl)-2-methoxy-pyridin-3-ylamino]-N-(1-methyl-piperidin-4-ylmethyl)-benzamide], the IC50 in assay [1] was found to be 8.9 µM; in assay [2], 0.74 µM. Also, in assay [3], the “SPR Response Units” value was found to be 192 Response Units.
As to `COc1nc(-c2cccc3c2OCCO3)ccc1Nc1cccc(C(=O)NCC2CCC(=O)NC2)c1` (stereo not drawn) [Example 164, 3-[6-(2,3-Dihydro-benzo[1,4]dioxin-5-yl)-2-methoxy-pyridin-3-ylamino]-N-(6-oxo-piperidin-3-ylmethyl)-benzamide], the values for the IC50 in assay [1] and in assay [2] were 25.9 µM and 4.8 µM, respectively. The “SPR Response Units” value in assay [3] is on record as 136 Response Units.
Taken in the same sequence, the figures for `COc1nc(-c2cccc3c2OCCO3)ccc1Nc1cccc(C(=O)NCc2cc[nH]c(=O)c2)c1` [Example 165, 3-[6-(2,3-Dihydro-benzo[1,4]dioxin-5-yl)-2-methoxy-pyridin-3-ylamino]-N-(2-oxo-1,2-dihydro-pyridin-4-ylmethyl)-benzamide] were 18.3 µM, 11.1 µM and 114 Response Units.
For `COc1nc(-c2cccc3c2OCCO3)ccc1Nc1cccc(C(=O)NCC2CNC(=O)C2)c1` (stereo not drawn) [Example 166, 3-[6-(2,3-Dihydro-benzo[1,4]dioxin-5-yl)-2-methoxy-pyridin-3-ylamino]-N-(5-oxo-pyrrolidin-3-ylmethyl)-benzamide] the same measures were 20.5 µM, 8.3 µM and 133 Response Units.
Taken in the same sequence, the figures for `COc1nc(-c2cccc3c2OCCO3)ccc1Nc1cccc(C(=O)NCC2CCN(C(C)=O)CC2)c1` [Example 167, N-(1-Acetyl-piperidin-4-ylmethyl)-3-[6-(2,3-dihydro-benzo[1,4]dioxin-5-yl)-2-methoxy-pyridin-3-ylamino]-benzamide] were 15.8 µM, 3.5 µM and 73 Response Units.
